In patent US9663496B2, “AMPK-activating heterocyclic compounds and methods for using the same” (Rigel Pharmaceuticals, Inc., priority 2010, dated 2017):
pEC50: −log10 of the molar value.

Target: AMPK
Assay: AMPK activation, enzyme-linked immunosorbent assay
Type: biochemical
Conditions: EC50 for AMPK activation, ELISA
Summary of the method: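 Activation by each compound is measured using a conventional commercial immunoassay kit.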

N#Cc1ccc(CN2CCC(NC(=O)c3ncc(C(=O)N4CCN(Cc5ccc(F)cc5)CC4)cc3CCCNC(=O)CCOCCOCCOCCOCCNC(=O)CCCC[C@@H]3SC[C@@H]4NC(=O)N[C@@H]43)CC2)cc1 [Compound 291, N-(1-(4-cyanobenzyl)piperidin-4-yl)-3-(5,21-dioxo-25-((3aS,4S,6aR)-2-oxohexahydro-1H-thieno[3,4-d]imidazol-4-yl)-8,11,14,17-tetraoxa-4,20-diazapentacosyl)-5-(4-(4-fluorobenzyl)piperazine-1-carbonyl)picolinamide]
pEC50: > 6.30

O=C(Nc1ccc(Oc2ccc(F)cc2)nc1)c1ccc(C(=O)N2CCC(C(=O)c3ccc(N4CCCC4)cc3)CC2)nc1 [Compound 382, N-(6-(4-fluorophenoxy)pyridin-3-yl)-6-(4-(4-(pyrrolidin-1-yl)benzoyl)piperidine-1-carbonyl)nicotinamide]
pEC50: > 6.30

CC(=O)c1ccc(Oc2ccc(NC(=O)c3ccc(C(=O)N4CCC(Oc5ccc(S(C)(=O)=O)cc5)CC4)nc3)cn2)cc1 [Compound 485, N-(6-(4-acetylphenoxy)pyridin-3-yl)-6-(4-(4-(methylsulfonyl)phenoxy)piperidine-1-carbonyl)nicotinamide]
pEC50: > 6.30

O=C(Nc1ccccc1)c1ccc(C(=O)N2CCN(Cc3ccc(F)cc3)CC2)cn1 [Compound 107, 5-(4-(4-fluorobenzyl)piperazine-1-carbonyl)-N-phenylpicolinamide]
pEC50: 5.00 to 5.30

N#Cc1ccc(O[C@H]2CC[C@@H](NC(=O)c3ccc(C(=O)N4CCN(Cc5ccc(F)cc5)CC4)cn3)CC2)cc1 [Compound 150, N-(cis-4-(4-cyanophenoxy)cyclohexyl)-5-(4-(4-fluorobenzyl)piperazine-1-carbonyl)picolinamide]
pEC50: > 6.30

O=C(NC1CCN(Cc2ccccc2)CC1)c1ccc(C(=O)NC2CCN(Cc3ccccc3)CC2)nc1 [Compound 264, N2,N5-bis(1-benzylpiperidin-4-yl)pyridine-2,5-dicarboxamide]
pEC50: 5.00 to 5.30

O=C(c1ccc(C(=O)N2CCN(CCc3ccccc3)CC2)nc1)N1CCN(Cc2ccc(F)cc2)CC1 [Compound 88, (4-(4-fluorobenzyl)piperazin-1-yl)(6-(4-phenethylpiperazine-1-carbonyl)pyridin-3-yl)methanone]
pEC50: 5.30 to 6.00

O=C(NC1CCN(Cc2cc(F)cc(F)c2)CC1)c1ccc(C(=O)N2CCC(C(=O)c3ccc(F)c(F)c3)CC2)cn1 [Compound 298, 5-(4-(3,4-difluorobenzoyl)piperidine-1-carbonyl)-N-(1-(3,5-difluorobenzyl)piperidin-4-yl)picolinamide]
pEC50: > 6.30

N#Cc1ccc(O[C@H]2CC[C@@H](NC(=O)c3ccc(C(=O)N4CCN(Cc5ccc(F)cc5)CC4)nc3)CC2)cc1 [Compound 332, N-((cis)-4-(4-cyanophenoxy)cyclohexyl)-6-(4-(4-fluorobenzyl)piperazine-1-carbonyl)nicotinamide]
pEC50: > 6.30

CS(=O)(=O)c1ccc(OC2CCN(C(=O)c3ccc(C(=O)Nc4ccc(Oc5ccc(F)cc5)nc4)nc3)CC2)cc1 [Compound 231, N-(6-(4-fluorophenoxy)pyridin-3-yl)-5-(4-(4-(methylsulfonyl)phenoxy)piperidine-1-carbonyl)picolinamide]
pEC50: > 6.30

O=C(NC1CCN(Cc2ccccc2)CC1)c1ccc(C(=O)N2CCN(c3ccccc3)CC2)cn1 [Compound 97, N-(1-benzylpiperidin-4-yl)-5-(4-phenylpiperazine-1-carbonyl)picolinamide]
pEC50: 5.30 to 6.00

CC(C)S(=O)(=O)c1ccc(N2CCN(C(=O)c3ccc(C(=O)NC4CCN(Cc5ccc(C#N)cc5)CC4)nc3)CC2)cc1 [Compound 251, N-(1-(4-cyanobenzyl)piperidin-4-yl)-5-(4-(4-(isopropylsulfonyl)phenyl)piperazine-1-carbonyl)picolinamide]
pEC50: > 6.30

COc1ccc(C(=O)C2CCN(C(=O)c3ccc(C(=O)NC4CCN(Cc5ccc(S(C)(=O)=O)cc5)CC4)cn3)CC2)cc1 [Compound 215, 6-(4-(4-methoxybenzoyl)piperidine-1-carbonyl)-N-(1-(4-(methylsulfonyl)benzyl)piperidin-4-yl)nicotinamide]
pEC50: < 5.00

N#Cc1ccc(CC2CCC(NC(=O)c3cccc(C(=O)N4CCN(Cc5ccc(F)cc5)CC4)n3)CC2)cc1 (centres unmarked) [Compound 99, N-(4-(4-cyanobenzyl)cyclohexyl)-6-(4-(4-fluorobenzyl)piperazine-1-carbonyl)picolinamide]
pEC50: 5.00 to 5.30

O=C(NC1CCN(Cc2ccc(F)cc2)CC1)c1ccc(C(=O)N2CC[C@H](Oc3ccc(F)cc3)C2)cn1 [Compound 182, (S)-N-(1-(4-fluorobenzyl)piperidin-4-yl)-5-(3-(4-fluorophenoxy)pyrrolidine-1-carbonyl)picolinamide]
pEC50: > 6.30

COc1ccc(C(=O)C2CCN(C(=O)c3ccc(C(=O)NC4CCN(Cc5ccc(C#N)cc5)CC4)cn3)CC2)cc1 [Compound 309, N-(1-(4-cyanobenzyl)piperidin-4-yl)-6-(4-(4-methoxybenzoyl)piperidine-1-carbonyl)nicotinamide]
pEC50: > 6.30

N#Cc1ccc(CN2CCC(NC(=O)c3ccc(C(=O)N4CCC(Oc5cccc(C#N)c5)CC4)cn3)CC2)cc1 [Compound 155, N-(1-(4-cyanobenzyl)piperidin-4-yl)-5-(4-(3-cyanophenoxy)piperidine-1-carbonyl)picolinamide]
pEC50: > 6.30

O=C(NC1CCN(Cc2ccc(OC(F)(F)F)cc2)CC1)c1ccc(C(=O)N2CCC(Oc3cccc(NC(=O)C4CC4)c3)CC2)nc1 [Compound 438, 6-(4-(3-(cyclopropanecarboxamido)phenoxy)piperidine-1-carbonyl)-N-(1-(4-(trifluoromethoxy)benzyl)piperidin-4-yl)nicotinamide]
pEC50: > 6.30

O=C(NC1CCN(Cc2ccc(N3CCCC3)cc2)CC1)c1ccc(C(=O)N2CCC(Oc3ccc(F)cc3)CC2)cn1 [Compound 196, 5-(4-(4-fluorophenoxy)piperidine-1-carbonyl)-N-(1-(4-(pyrrolidin-1-yl)benzyl)piperidin-4-yl)picolinamide]
pEC50: > 6.30

O=C(Nc1ccc(Oc2ccc(F)cc2)nc1)c1cnc(C(=O)N2CCC(Oc3ccc(C(F)(F)F)cc3)CC2)cn1 [Compound 205, N-(6-(4-fluorophenoxy)pyridin-3-yl)-5-(4-(4-(trifluoromethyl)phenoxy)piperidine-1-carbonyl)pyrazine-2-carboxamide]
pEC50: > 6.30

COc1ccc(O[C@H]2CC[C@@H](NC(=O)c3ccc(C(=O)N4CCC(Oc5ccc(C(F)(F)F)cc5)CC4)cn3)CC2)cc1 [Compound 185, N-((cis)-4-(4-methoxyphenoxy)cyclohexyl)-5-(4-(4-(trifluoromethyl)phenoxy)piperidine-1-carbonyl)picolinamide]
pEC50: > 6.30

N#Cc1ccc(CN2CCC(NC(=O)c3ccc(C(=O)N4CCC(Oc5ccc(C#N)cc5)CC4)nc3)CC2)cc1 [Compound 323, N-(1-(4-cyanobenzyl)piperidin-4-yl)-6-(4-(4-cyanophenoxy)piperidine-1-carbonyl)nicotinamide]
pEC50: > 6.30

N#Cc1ccc(CN2CCC(NC(=O)c3ccc(C(=O)N4CCC(Oc5ccc(SC(F)(F)F)cc5)CC4)nn3)CC2)cc1 [Compound 436, N-(1-(4-cyanobenzyl)piperidin-4-yl)-6-(4-(4-(trifluoromethylthio)phenoxy)piperidine-1-carbonyl)pyridazine-3-carboxamide]
pEC50: > 6.30

O=C(Nc1ccc(Oc2ccc(F)cc2)nc1)c1ccc(C(=O)N2CCC(C(=O)c3ccc(F)cc3F)CC2)nc1 [Compound 348, 6-(4-(2,4-difluorobenzoyl)piperidine-1-carbonyl)-N-(6-(4-fluorophenoxy)pyridin-3-yl)nicotinamide]
pEC50: > 6.30

CS(=O)(=O)c1ccc(OC2CCN(C(=O)c3ccc(C(=O)Nc4ccc(Oc5ccc(F)cc5)nc4)cn3)CC2)cc1 [Compound 235, N-(6-(4-fluorophenoxy)pyridin-3-yl)-6-(4-(4-(methylsulfonyl)phenoxy)piperidine-1-carbonyl)nicotinamide]
pEC50: > 6.30

CC(C)N1CCN(C(=O)c2ccc(C(=O)N3CCN(CCc4ccccc4)CC3)nc2)CC1 [Compound 91, (4-isopropylpiperazin-1-yl)(6-(4-phenethylpiperazine-1-carbonyl)pyridin-3-yl)methanone]
pEC50: < 5.00

COc1ccc(CN2CCC(NC(=O)c3ccc(C(=O)N4CCC(S(=O)(=O)c5ccc(F)cc5)CC4)nc3)CC2)cc1 [Compound 474, 6-(4-(4-fluorophenylsulfonyl)piperidine-1-carbonyl)-N-(1-(4-methoxybenzyl)piperidin-4-yl)nicotinamide]
pEC50: 5.30 to 6.00

N#Cc1ccc(CN2CCC(NC(=O)c3ccc(C(=O)N4CCC(Oc5ccc(SC(F)(F)F)cc5)CC4)cn3)CC2)cc1 [Compound 410, N-(1-(4-cyanobenzyl)piperidin-4-yl)-5-(4-(4-(trifluoromethylthio)phenoxy)piperidine-1-carbonyl)picolinamide]
pEC50: > 6.30

CS(=O)(=O)c1ccc(C(=O)C2CCN(C(=O)c3ccc(C(=O)Nc4ccc(Oc5ccc(F)cc5)nc4)nc3)CC2)cc1 [Compound 232, N-(6-(4-fluorophenoxy)pyridin-3-yl)-5-(4-(4-(methylsulfonyl)benzoyl)piperidine-1-carbonyl)picolinamide]
pEC50: > 6.30

N#Cc1ccc(CN2CCC(NC(=O)c3ccc(C(=O)N4CCC(C(=O)c5ccc(N6CCCC6)cc5)CC4)cn3)CC2)cc1 [Compound 365, N-(1-(4-cyanobenzyl)piperidin-4-yl)-5-(4-(4-(pyrrolidin-1-yl)benzoyl)piperidine-1-carbonyl)picolinamide]
pEC50: > 6.30

N#Cc1ccc(OC2CCN(C(=O)c3ccc(C(=O)NC4CCN(Cc5ccc(N6CCCC6)cc5)CC4)nc3)CC2)cc1 [Compound 197, 5-(4-(4-cyanophenoxy)piperidine-1-carbonyl)-N-(1-(4-(pyrrolidin-1-yl)benzyl)piperidin-4-yl)picolinamide]
pEC50: > 6.30

O=C(Nc1ccc(Oc2ccc(F)cc2)nc1)c1ccc(C(=O)N2CCC(Oc3ccc(NS(=O)(=O)C4CC4)cc3)CC2)nc1 [Compound 449, 6-(4-(4-(cyclopropanesulfonamido)phenoxy)piperidine-1-carbonyl)-N-(6-(4-fluorophenoxy)pyridin-3-yl)nicotinamide]
pEC50: 5.30 to 6.00
